The record followed here is patent US20060018978A1, “Botanical compositions having hypoglycemic, hypolipidemic and antimicrobial activities for maintaining good health in normal person and diabetic patient” (priority 2004, published 2006).

The subject of test [1] is streptozotocin-induced diabetic rats. The experiment in a line: Biochemical analysis of serum in diabetic rats at day 14 after daily feeding. It is filed as in vivo, rat. To be noted: day 14, Standard: injected 5 IU/Kg/day, mean ± S.E.M.
For test [2], the system named is Escherichia coli ATCC 25922. The experiment in a line: Agar Diffusion Test, E. coli. It is filed as cell-based. To be noted: mean ± S.E.M. The text has this:
(§1) The dried plant extract is ground to fine powder and sieved to obtain uniform powder size and used for pharmaceutical preparation. […] (1991) Antibiotics in Laboratory Medicine, 3rd ed. The pathogenic microbes inhibited by the crude water extract of M. coromandelianum are Staphylococcus aureus, and Salmonella typhimurium. […] [table]

Test [3] relates to Klebsiella pneumoniae ATCC 10031. Put plainly: Agar Diffusion Test, K. pneumoniae. Type of test: cell-based. Conditions: mean ± S.E.M.
Description: as §1

For test [4], the system named is Staphylococcus aureus ATCC 6538P. Put plainly: Agar Diffusion Test, S. aureus. It is filed as cell-based. Conditions: mean ± S.E.M.
Description: as §1

For test [5], the system named is Pseudomonas aeruginosa ATCC 9721. Put plainly: Agar Diffusion Test, Ps. aeruginosa. To be noted: mean ± S.E.M. It is filed as cell-based.
Description: as §1

The test system of test [6] is Salmonella typhimurium ATCC 14028. Put plainly: Agar Diffusion Test, S. typhimurium. Type of test: cell-based. To be noted: mean ± S.E.M.
Description: as §1

In the case of Insulin, in test [1], the Cholesterol is 225.96 ± 5.51 mg %, the Glucose was determined as 409.85 ± 12.52 mg % and the Triglycerides turned out to be 388.10 ± 61.85 mg %.

On to Gentamicin, for which the “Diameter of inhibition zone” value in test [2] (10 μg/ml) stood at 1.56 ± 0.07 mm; in test [2] (20 μg/ml) it was 3.78 ± 0.07 mm; in test [3] (10 μg/ml) it was 16.9 ± 0.00 mm; in test [3] (20 μg/ml) it was 26.57 ± 0.28 mm; in test [4] (10 μg/ml) it was 10.00 ± 0.00 mm; in test [4] (20 μg/ml) it was 12.77 ± 0.14 mm. The “Diameter of inhibition zone” value in test [5] (10 μg/ml) came to 8.1 ± 0.00 mm; in test [5] (20 μg/ml) it was 12.8 ± 0.14 mm; in test [6] (10 μg/ml), 14.28 ± 0.07 mm; in test [6] (20 μg/ml) it was 15.88 ± 0.141 mm.
